# Experimental data taken from patent US20100120902A1, “STANDARIZED BIOACTIVE HERBAL EXTRACTS” (RANBAXY LABORATORIES LIMITED, priority 2007, published 2010).
# What was measured:
# [1] = test system: PBM cells (peripheral blood mononuclear cells); experiment: In-vitro mitogen induced lymphocyte proliferation assay (3H-thymidine uptake); format: cell-based; conditions: Homo sapiens, PBMC; 20 μg/ml
# Method: Blood (20 ml) was collected from healthy volunteers in a […] 10 ml of lymphoprep (Nycomed pharma, AS) and centrifuged at 1800 rpm for 30 minutes at 23° C., mononuclear cell containing buffy layer was transferred to another tube and washed three times with PBS (phosphate buffered saline) and centrifuged at 1500 rpm for 15 minutes. […] PBM cells were adjusted to a concentration of 1×10^6 cells/ml in RPMI buffer (Biochrom AG) and 2×10^5 cells/well were seeded in a total volume of 200 μl to a 96 well U bottom plate. […] Cultures were incorporated with 0.5 μCi[3H], 18 hours before the completion of incubation and cells were harvested on glass fiber filter using multi-well harvester and thymidine uptake was determined by measuring radioactivity on liquid scintillation counter and the mean count per minute (CPM) of triplicate was calculated.
# [2] = test system: TNF-α, IL-1β and iNOS mRNA expression in RAW 264.7 cells; experiment: In-vitro effect on gene expression of inflammatory mediators (semi-quantitative RT-PCR); format: cell-based, mouse; conditions: 12 hrs incubation
# [3] = test system: LTB4 release from neutrophils; experiment: In-vitro leukotriene B4 (LTB4) release assay (A23187, ELISA); format: cell-based; conditions: Homo sapiens, Neutrophil; A23187 stimulated
# Method: Neutrophils were isolated from freshly drawn human blood after dextran sedimentation and ficoll separation [Hatzelmann and Ullrich, Eur. J. […] Ca^++/Mg^++ (0.25 mM) was added, 3 minutes before the end of incubation with these test samples. Then, 0.3 μg/ml of A23187 (Calcimycin) was added and incubated for further 10 minutes. The reaction was stopped by adding 80 μl of cold methanol and mixture was spun at 3500 rpm for 10 minutes to remove cell debris. The samples were analyzed for LTB4 assay [Hatzelmann and Schudt, J. Pharmacol. Exp. […] (2001), 267-279] using LTB4 ELISA kits (Assay Design Inc., USA). The amount of LTB4 was quantified and percent inhibition in LTB4 release was calculated with respect to control (without test sample) to compute IC50 values.
# [4] = test system: TNF-α release from PBM cells; experiment: In-vitro TNF-α release inhibition assay from PBMCs (LPS, ELISA); format: cell-based; conditions: Homo sapiens, PBMC; LPS stimulated PBM cells
# Method: (§1) Blood (20 ml) was collected from healthy volunteers in a heparanised vial with 10 ml of lymphoprep (Nycomed pharma, AS) and centrifuged at 1800 rpm for 30 minutes at 23° C., mononuclear cell containing buffy layer was transferred to another tube and washed three times with PBS (phosphate buffered saline) and centrifuged at 1500 rpm for 15 minutes. Pellet cells were resuspended in 2 ml of RPMI-1640 medium (Biochrom, AG) supplemented with 25 mM HEPES [N-(2-hydroxyethyl)piperazine-N′-(2-ethanesulfonic acid)], L-glutamine (2 mM), penicillin (100 U/ ml), streptomycin (100 μg/ml) and 10% inactivated FCS (fetal calf serum) and, finally viable cells were counted.
# (§2) PBM cells were adjusted to 1×10^6 cells/ml number in RPMI 1640 medium, (Biochrom AG) and 100 μl volume of this cell suspension per well was plated in a 96 well plate. […] Twenty μl of DMSO control and each concentration of these prepared test samples were added to corresponding wells in a 96 well plate. The plate was incubated for 30 minutes at room temperature on rotatory shaker at 200 rpm and 50 μl of lipopolysacchride (LPS) (4 μg/ml) was added to each well, except negative LPS control wells. […] A dose response curve was generated with different concentrations of test sample and the IC50 was calculated using Graph Pad Prism. […]
# [5] = test system: IL-1β release from PBM cells; experiment: In-vitro IL-1β release inhibition assay from PBMCs (LPS, ELISA); format: cell-based; conditions: Homo sapiens, PBMC; LPS stimulated PBM cells; read-out: IC50 against IL-1β release
# Method: as §1, §2
# [6] = test system: supernatant cells; experiment: Cell viability/toxicity test (MTT assay); format: cell-based
# Method: Viability of cells was analyzed using (3-4,5-dimethylthiazol-2-yl)-2,5-diphenyl-tetrazolium bromide (MTT) assay (Mosmann T, J Immunol. Meth., 65 (1983), 55-63) with supernatant cells by adding 0.1 mL of MTT (0.25 mg/mL) with 0.1 mL of supernatant cells. The cells were incubated at 37° C. for about 2-4 hours, and then the optical density was measured at 490-650 nm.
# [7] = test system: IL-2 production in human PBMCs; conditions: phytohemagglutinin stimulated; Pandey et al 2005; cited from earlier work
# [8] = test system: TNF-α production in human PBMCs; conditions: lipo-polysaccharide induced; Pandey et al 2005; cited from earlier work
# [9] = test system: nuclear factor-(kappa)B and transcription factor AP-1; conditions: Pandey et al 2005; cited from earlier work
# [10] = test system: LPS induced TNF-α release (plasma); experiment: Anti-inflammatory efficacy against endotoxemia; format: in vivo, female Balb/C mice; conditions: 10 mg/kg oral
# From the text: One hour later, animals were challenged with LPS (lipopolysacchride). Ninety minutes later, blood was collected and TNF-α was estimated in the plasma using ELISA kit and values for each treatment group was expressed as mean±SEM. Comparison was made with control group using one-way ANOVA followed by Dunnett's multiple test and a p≦0.05 was considered statistically significant.
# [11] = test system: carrageenan induced hyperalgesia; experiment: Analgesic efficacy against carrageenan induced hyperalgesia; format: in vivo, wistar rats; conditions: 5 mg/kg oral, after 2 hours
# [12] = test system: CFA induced hyperalgesia; experiment: Antihyperalgesic activity against Complete Freund's adjuvant (CFA) induced hyperalgesia; format: in vivo, rats; conditions: 5 mg/kg oral, 2 hours post treatment
# Method: Basal weight bearing threshold of the rats was determined using Randall Selitto analgesiometer (Ugo Basile, Italy) followed by challenge with Complete Freund's adjuvant (a suspension of desiccated Mycobacterium butyricum in a mixture of paraffin oil and an emulsifying agent, mannide monooleate; 50 μL of 500 μg/ml suspension/animal), injected subplantarly. Twenty four hours later weight-bearing threshold of the animals was recorded as pre-dose values at time 0 hours. […] Two hours post treatment, weight-bearing threshold of the animals was recorded again. […] One group was treated with Incomplete Freund's adjuvant (IFA) and served as negative control group.
# [13] = test system: carrageenan induced paw edema; experiment: Anti-inflammatory efficacy against carrageenan induced paw edema model; format: in vivo, rats; conditions: 5 mg/kg oral, 3 hours post carrageenan
# Method: One hour later, animals were challenged with carrageenan (1% w/v, 100 μL/rat) subplantarly. The paw edema was recorded 3 hours post carrageenan challenge. Data from each group was expressed as mean±SEM. Change in paw edema in treatment group were compared from vehicle control group using one-way ANOVA followed by Dunnett's multiple comparison test. A p≦0.05 was considered statistically significant.
# [14] = test system: CFA induced arthritis (contra-lateral paw volume); experiment: Antiarthritic efficacy against CFA induced arthritis model; format: in vivo, Wistar rats; conditions: 0.2 mg/kg/day
# Method: Wistar rats were injected with 50 μL of 1 mg/ml solution of Complete Freund's adjuvant (CFA) subplantarly. […] The animals showing 0.30-0.40 ml increase in paw volume of the contralateral paw from the basal were included in the study.
# The test sample or vehicle (polyethylene glycol+water 20:80) was administered in two divided doses for 10 days. The paw volume of the animals was recorded on the alternate days. A plot of change in paw volume from day 0 was made and area under the curve (AUC) was calculated using GraphPad Prism software (GraphPad Software Inc, USA, Version 4) for each animal and was averaged in each treatment group.
# [15] = test system: CFA induced arthritis in ankle joint; experiment: Histopathological analysis of CFA induced arthritis in ankle joint; format: in vivo, Wistar rats
# Method: At the end of the study (p), animals were euthanized and ankle joints of contra-lateral hind limb were collected for histopathological evaluation Ankle joints were evaluated for the effect on synovial proliferation, inflammation of soft tissues, pannus formation and erosion of cartilage as well as bone (FIG. 13). The changes observed were scored as 0=no change, 1 mild, 2=moderate, 3=marked and 4=severe. The scores for each parameter mentioned above were summed to obtain total histopathological score for each animal.
# [16] = test system: formalin induced Phase I and Phase II pain; experiment: Analgesic efficacy against formalin test; format: in vivo, mice; conditions: 10 mg/kg i.p.
# Method: Thirty minutes later, formalin solution (1% w/v, 25 μL/mice) was injected subplantarly in mice and immediately after injection, duration of mice licking or flicking of the injected paw was recorded for a period of 30 minutes in 5 minute slots. The first five minutes duration constitutes Phase-I pain which is centrally mediated while Phase-II pain which lasts from 10-30 minutes is peripherally mediated pain. Values of each group were expressed as mean±SEM (standard error of mean) and comparison was made with control group using one-way ANOVA followed by Dunnett's multiple test and a p≦0.05 was considered statistically significant.
structure (smiles),measurement,setting,value
Cc1c(O)cc2oc3c(c(=O)c2c1O)-c1ccc(O)cc1OC3O (centres unmarked) [Boeravinone E],inhibition at 20 µg/mL,[1],59%
same,"expression of TNF-α, IL-1β and iNOS",[2],down regulated all the 3 inflammatory mediators
same,IC50,[3],21.8 µg/mL
same,IC50,[4],7 µg/mL
same,IC50,[5],7 µg/mL
same,concentration at 50% viability of tested cells,[6],81.5 µg/mL
"COc1cc2oc(-c3ccc(O)cc3)c(OC3OC(CO)C(O)C(O)C3O)c(=O)c2c(O)c1OC [Bd-I, eupalitin-3-O-beta-D-galactopyranoside]",production of IL-2 at the protein and mRNA transcript levels,[7],inhibited
same,TNF-α production,[8],inhibited
same,activation of DNA binding of nuclear factor-(kappa)B and AP-1,[9],block the activation of DNA binding
O=c1ncn2nc(Sc3ccc(F)cc3F)ccc2c1-c1c(Cl)cccc1Cl [Vx745],inhibition of LPS response (TNF-α),[10],59%
COc1ccc2c(c1)c(CC(=O)O)c(C)n2C(=O)c1ccc(Cl)cc1 [Indomethacin],inhibition (carrageenan induced hyperalgesia),[11],66%
same,reversal of the hyperalgesia induced by CFA,[12],64%
same,inhibition of carrageenan induced paw edema,[13],48%
same,paw edema,[14],reversal of the paw edema toward basal level
same,% inhibition (histopathological score),[15]; 0.2 mg/kg,62.8%
same,recruitment of inflammatory cells,"[15]; 0.2 mg/kg/day, FIG. 13 A",completely prevented the recruitment of inflammatory cells
same,Pannus formation,"[15]; 0.2 mg/kg/day, FIG. 13 B",mild
same,inhibitory effect on cartilage degradation,"[15]; 0.2 mg/kg/day, FIG. 13 C",prominent
Cc1c(O)cc2oc3c(c(=O)c2c1O)-c1ccccc1OC3O (centres unmarked) [Boeravinone B],inhibition at 20 µg/mL,[1],66%
same,"expression of TNF-α, IL-1β and iNOS",[2],down regulated all the 3 inflammatory mediators
same,IC50,[3],> 100 µg/mL
same,IC50,[4],6.8 µg/mL
same,IC50,[5],3.6 µg/mL
same,concentration at 50% viability of tested cells,[6],64.5 µg/mL
CC(C)=CCN1CCC2(C)c3cc(O)ccc3CC1C2C (centres unmarked) [Pentazocin],percent protection in Phase-I pain,[16],40%
same,percent protection in Phase-II pain,[16],50%
